# How the values were obtained:
# Format in all cases: in vivo, mouse
# Winnie mice [1] = assay: Clinical symptoms (body weight, rectal prolapse, faecal water content) in Winnie mice treated with APX3330; details: for Daily Body Weight: mean, SEM in line below, in % (unit assumed)
# Source text: In this Example, the murine model of IBD named Winnie, in which spontaneous chronic colitis results from a primary intestinal epithelial defect conferred by a mutation in the Muc2 mucin gene, was used to analyze the symptoms of IBD and the effects of treatment with APX3330. Although other models of chronic intestinal inflammation have been developed (e.g., IL-10 knockout), most of them are environment-dependent (attain inflammation only in the presence of pathogenic bacteria). Further, unlike other models, mild spontaneous inflammation in the colorectum is developed in all Winnie mice by 6 weeks of age (young adults) in pathogen-free conditions; it progresses over time and results in severe colitis by the age of 12-16 weeks. This is due to a thinner mucus layer allowing increased intestinal permeability and thus enhanced susceptibility to luminal toxins normally within the gut. In humans, Muc2 production and secretion are reduced leading to a thinner mucosal layer and increased intestinal permeability. Winnie mice (Win/Win) display symptoms of diarrhoea (not watery), ulcerations, rectal bleeding and pain at the acute stages of colitis similar to those in human IBD. The Winnie murine model of chronic colitis (12 w.o.; 15-35 g; n=24) were attained from Victoria University Werribee Animal Facility (Melbourne, Australia) to determine the effectiveness of APX3330 on mechanisms of oxidative stress. Treated Winnie mice were paralleled to a control C57BL/6 group (12 w.o.; 20-30 g; n=12) inclusive of female and male mice. All mice were acclimatized for 3 days prior to receiving in vivo intraperitoneal (IP) injections. All mice were housed at Western Centre for Health, Research and Education (WCHRE, Melbourne, Victoria, Australia) in a temperature-controlled environment with a 12-hour day/night cycle. All animals had free access to food and water with […] efforts made to minimize any suffering. All experimental procedures in this Example were conducted in agreement to the Australian National Health and Medical Research Council (NHMRC) guidelines and approved by Victorian University Animal Experimentation Ethic Committee (AEEC) under animal ethics AEETH 13/001 and AEC 17/016. The small molecular APE1/Ref-1 antagonist; APX3330, was administered via IP injections in Winnie mice at a dose of 25 mg/kg (30 G needle, max volume 200 μl) dissolved in Cremphore (2%) (Sigma-Aldrich): Ethanol (2%) in sterile water (96%). Mice received alternating IP injections twice a day with 12-hour intervals, over the course of two weeks during predominate intestinal inflammation. Winnie-sham treated mice received vehicle injections excluding APX3330 drugs. All mice were monitored, weighed and faecal pellets were collected over the course of treatment.
# Winnie mice [2] = assay: Intestinal inflammation: faecal lipocalin (Lcn)-2 ELISA; details: day 14; mean±SEM, n=5
# Experimental: The small molecular APE1/Ref-1 antagonist; APX3330, was administered via IP injections in Winnie mice at a dose of 25 mg/kg (30 G needle, max volume 200 μl) dissolved in Cremphore (2%) (Sigma-Aldrich): Ethanol (2%) in sterile water (96%). Mice received alternating IP injections twice a day with 12-hour intervals, over the course of two weeks during predominate intestinal inflammation. Winnie-sham treated mice received vehicle injections excluding APX3330 drugs. All mice were monitored, weighed and faecal pellets were collected over the course of treatment. Faecal lipocalin (Lcn)-2 ELISA kit (Abcam) were used to detect efficacy of APX3330 on levels of colonic inflammation. Faecal samples collected on day 14 of treatments from control C57BL/6, Winnie-Sham treated and Winnie-APX3330 treated mice were reconstituted in PBS-0.1 TWEEN 20 (100 mg/mL) to form a homogenous faecal suspension. Homogenous suspension was centrifuged for 10 minutes at 12000 RPM at 4° C. Lcn-2 were determined in the clear supernatants. All samples were repeated in duplicates for statistical value. […] Microplate reader capable of measuring absorbance at 450 nm, with the correction wavelength set at 540 nm was used to detect Lcn-2 protein (pg/mL) in faecal pellet supernatant.
# Winnie mice [3] = assay: Ex vivo whole organ bath colonic motility of colons from treated mice; details: excised whole colons of treated Winnie mice; mean±SEM, n=5
# Experimental: The small molecular APE1/Ref-1 antagonist; APX3330, was administered via IP injections in Winnie mice at a dose of 25 mg/kg (30 G needle, max volume 200 μl) dissolved in Cremphore (2%) (Sigma-Aldrich): Ethanol (2%) in sterile water (96%). Mice received alternating IP injections twice a day with 12-hour intervals, over the course of two weeks during predominate intestinal inflammation. Winnie-sham treated mice received vehicle injections excluding APX3330 drugs. All mice were monitored, weighed and faecal pellets were collected over the course of treatment. Colonic motility experiments were completed ex vivo. Whole colons were removed from control C57BL/6, Winnie-sham treated and Winnie-APX3330 treated mice. Colons were positioned horizontally cannulated at the oral and anal end in an organ bath superfused with carbogenated (composition in mM: NaCl 118, KCl 4.6, CaCl2 3.5, MgSO4 1.2, NAH2PO4 1, NaHCO3 25 and d-Glucose; carbongenated with 95% O2 and 5% CO2) ×1 Krebs solution whilst maintained at a temperature of 37° C. The oral cannula was connected to a reservoir with 1× Krebs solution that was adjusted to maintain intraluminal pressure (0 to +2 cm H2O). The anal end was coupled to an out-flow tube with a maximum 2 cm H2O backpressure. A recording was made by a video camera being positioned above the organ bath, this recorded the colonic contractile activity. Tissue were left to equilibrate for 30 minutes prior to 2× 20-minute recordings at increasing intraluminal pressure. Videos were transposed into spatiotemporal maps with Scribble v2.0 software and were analysed by using MATLAB, v2017a software to assess parameters of colonic motility.
compound,measurement,setting,value
CCCCCCCCCC(=CC1=C(C)C(=O)C(OC)=C(OC)C1=O)C(=O)O [APX3330],Daily Body Weight,"Winnie mice [1]; Day 1, relative to initial weight, 25 mg/kg IP twice a day",102
same,Daily Body Weight,"Winnie mice [1]; Day 2, relative to initial weight, 25 mg/kg IP twice a day",100
same,Daily Body Weight,"Winnie mice [1]; Day 3, relative to initial weight, 25 mg/kg IP twice a day",101
same,Daily Body Weight,"Winnie mice [1]; Day 4, relative to initial weight, 25 mg/kg IP twice a day",101
same,Daily Body Weight,"Winnie mice [1]; Day 5, relative to initial weight, 25 mg/kg IP twice a day",100
same,Daily Body Weight,"Winnie mice [1]; Day 6, relative to initial weight, 25 mg/kg IP twice a day",100
same,Daily Body Weight,"Winnie mice [1]; Day 7, relative to initial weight, 25 mg/kg IP twice a day",98
same,Daily Body Weight,"Winnie mice [1]; Day 8, relative to initial weight, 25 mg/kg IP twice a day",98
same,Daily Body Weight,"Winnie mice [1]; Day 9, relative to initial weight, 25 mg/kg IP twice a day",98
same,Daily Body Weight,"Winnie mice [1]; Day 10, relative to initial weight, 25 mg/kg IP twice a day",99
same,Daily Body Weight,"Winnie mice [1]; Day 11, relative to initial weight, 25 mg/kg IP twice a day",99
same,Daily Body Weight,"Winnie mice [1]; Day 12, relative to initial weight, 25 mg/kg IP twice a day",99
same,Daily Body Weight,"Winnie mice [1]; Day 13, relative to initial weight, 25 mg/kg IP twice a day",99
same,"rectal prolapse, edema and bleeding","Winnie mice [1]; by day 14 of treatments, 25 mg/kg IP twice a day",reduced
same,faecal water content,"Winnie mice [1]; day 14, 25 mg/kg IP twice a day, mean±SEM, n=7",73.2±2.1%
same,Lcn-2 faecal level,Winnie mice [2],36 ± 2.0 pg/mL
same,proportional length of colonic migrating motor complexes (CMMCs),Winnie mice [3],73±1.0%
same,proportional short contraction length (<50% of colon length),Winnie mice [3],33.9±3.8%
same,total length of colonic contractions relative to total colon length,Winnie mice [3],62.3±2.4%
